# Experimental data reported in patent US20250213533A1 (GH RESEARCH IRELAND LIMITED, priority 2022, published 2025).
# System: patients with postpartum depression (PPD)
# Assay: Clinical trial of inhaled 5-MeO-DMT (IDR) in postpartum depression; one patient so far, 6 mg then 12 mg
# Details: 1 patient
# Procedure: The single-arm, open-label clinical trial will involve 15 adult female patients with clinically diagnosed postpartum depression (PPD).
# The second dose (12 mg) will only be administered if: • a. […] The 6 mg dose was safe and well-tolerated according to the investigator, • c. Any psychoactive effects (PsE) of the prior dose have subsided, and • d. Pre-dose vital parameters and forced expiratory volume in one second (FEV1) are in normal range, or if outside of the normal range, are not clinically significant according to the investigator. • 3. Similarly, a third dose (18 mg) will only be administered if: • a. […] The 12 mg dose was safe and well-tolerated according to the investigator, and • c. Any PsE of the prior dose have subsided, and • d. Pre-dose vital parameters and forced expiratory volume in one second (FEV1) are in normal range, or if outside of the normal range, are not clinically significant according to the investigator.
# The patients will be assessed for a peak psychedelic experience (based on a patient-scored visual analogue scale, the PE scale), sedation, and other endpoints after dosing. Follow-up visits are planned for Day 1, and Day 7 after the dosing day.
# The following criteria must be met by all patients considered for clinical trial participation: • 1. Is female and in the age range between 18 and 45 years (inclusive) at screening. • 2. Has a body mass index (BMI) in the range of 18.5 and 35 kg/m^2 (inclusive) at screening. • 3. Meets the trial criteria for PPD as assessed by a trial psychiatrist or registered psychologist: • a. Diagnosis of Major Depressive Disorder without psychotic features, confirmed by the Mini-International Neuropsychiatric Interview (MINI), with peri-partum onset that began no earlier than gestation and no later than the first 4 weeks postpartum. • b. Has a Montgomery-Åsberg Depression Rating Scale (MADRS) total score of equal to or greater than 28 at screening and pre-dose on Day 0. • 6. […] Patients must have a negative pregnancy test at screening and on the pre-test day (Day −1). • 5. Is willing to delay start of other antidepressant or anxiety medication until after the end of the trial at Day 7 and agrees to keep any psychotherapy unchanged during the trial.
# A potential patient who meets any of the following key exclusion criteria will be excluded from participation in this trial: • 1. Has, based on history, psychiatric assessment, and evaluation of the MINI, a current or prior diagnosis of bipolar disorder, a manic or hypomanic episode, a psychotic disorder, Major Depressive Disorder (MDD) or other mood disorder with psychotic features, obsessive compulsive disorder, post-traumatic stress disorder (PTSD), autism spectrum disorder, borderline personality disorder, schizophrenia, delusional disorder, paranoid personality disorder, schizoaffective disorder, clinically significant intellectual disability, or any other psychiatric comorbidity that renders the patient unsuitable for the trial according to the investigator's judgment. • 2. Has one or more first or second degree relatives with a current or previously diagnosed bipolar disorder, psychotic disorder or other mood disorder (including MDD) with psychotic features. • 3. Is in the judgement of a trial psychiatrist or registered psychologist, at significant risk for suicide based on history, psychiatric assessment, and evaluation of suicidal ideation and suicidal behaviour based on the Columbia-Suicide Severity Rating Scale (C-SSRS). • 4. Has taken anti-depressive medication within 14 days or 5 half-lives (whichever is longer) prior to dosing (exception: within the last 5 weeks in the case of fluoxetine). • 5.
compound,measurement,setting,value
COc1ccc2[nH]cc(CCN(C)C)c2c1 [5-MeO-DMT],BIMF item 11 (take a little time each week to do something for myself) score,Day 7,6
same,BIMF item 12 (taking good care of my baby's physical needs) score,Day 7,6
same,BIMF item 13 (taking good care of my physical needs) score,Day 7,5
same,BIMF item 14 (good decisions about my baby's health and well being) score,Day 7,6
same,BIMF item 15 (My baby and I are getting into a routine) score,Day 7,6
same,BIMF item 17 (able to take care of my baby and my other responsibilities) score,Day 7,5
same,BIMF item 18 (Anxiety or worry often interferes with my mothering ability) score,Day 7,5
same,BIMF item 19 (getting better at taking care of my baby) score,Day 7,1
same,BIMF item 20 (satisfied with the job I am doing as a new mother) score,Day 7,5
same,BPRS Anxiety improvement,Day 7,6
same,BPRS Anxiety score,Day 7,1
same,BPRS Blunted affect improvement,Day 7,0
same,BPRS Blunted affect score,Day 7,1
same,BPRS Conceptual disorganization improvement,Day 7,0
same,BPRS Conceptual disorganization score,Day 7,1
same,BPRS Depressive Mood improvement,Day 7,5
same,BPRS Depressive Mood score,Day 7,1
same,BPRS Disorientation improvement,Day 7,0
same,BPRS Disorientation score,Day 7,1
same,BPRS Emotional withdrawal improvement,Day 7,4
same,BPRS Emotional withdrawal score,Day 7,1
same,BPRS Excitement improvement,Day 7,1
same,BPRS Excitement score,Day 7,1
same,BPRS Grandiosity improvement,Day 7,0
same,BPRS Grandiosity score,Day 7,1
same,BPRS Guilt feelings improvement,Day 7,5
same,BPRS Guilt feelings score,Day 7,1
same,BPRS Hallucinatory behaviour improvement,Day 7,0
same,BPRS Hallucinatory behaviour score,Day 7,1
same,BPRS Hostility improvement,Day 7,0
same,BPRS Hostility score,Day 7,1
same,BPRS Mannerisms and Posturing improvement,Day 7,0
same,BPRS Mannerisms and Posturing score,Day 7,1
same,BPRS Motor retardation improvement,Day 7,0
same,BPRS Motor retardation score,Day 7,1
same,BPRS Somatic Concern improvement,Day 7,5
same,BPRS Somatic Concern score,Day 7,1
same,BPRS Suspiciousness improvement,Day 7,0
same,BPRS Suspiciousness score,Day 7,1
same,BPRS Tension improvement,Day 7,5
same,BPRS Tension score,Day 7,1
same,BPRS Uncooperativeness improvement,Day 7,0
same,BPRS Uncooperativeness score,Day 7,1
same,BPRS Unusual Thought Content improvement,Day 7,0
same,BPRS Unusual Thought Content score,Day 7,1
same,MADRS Apparent sadness improvement,Day 7,5
same,MADRS Apparent sadness score,Day 7,0
same,MADRS Concentration Difficulties improvement,Day 7,0
same,MADRS Concentration Difficulties score,Day 7,0
same,MADRS Inability to Feel improvement,Day 7,3
same,MADRS Inability to Feel score,Day 7,0
same,MADRS Inner Tension improvement,Day 7,4
same,MADRS Inner Tension score,Day 7,1
same,MADRS Lassitude improvement,Day 7,3
same,MADRS Lassitude score,Day 7,0
same,MADRS Pessimistic Thoughts improvement,Day 7,4
same,MADRS Pessimistic Thoughts score,Day 7,0
same,MADRS Reduced Sleep improvement,Day 7,5
same,MADRS Reduced Sleep score,Day 7,0
same,MADRS Reduced appetite improvement,Day 7,0
same,MADRS Reduced appetite score,Day 7,0
same,MADRS Reported sadness improvement,Day 7,4
same,MADRS Reported sadness score,Day 7,0
same,MADRS Suicidal Thoughts improvement,Day 7,0
same,MADRS Suicidal Thoughts score,Day 7,0
same,BIMF item 10 (trust my own feelings (instincts) in taking care of my baby) Δ,Day 7 vs Day 0,1
same,BIMF item 11 (take a little time each week to do something for myself) Δ,Day 7 vs Day 0,1
same,BPRS Anxiety improvement,Discharge,6
same,BPRS Anxiety score,Discharge,1
same,BPRS Blunted affect improvement,Discharge,0
same,BPRS Conceptual disorganization improvement,Discharge,0
same,BPRS Depressive Mood improvement,Discharge,5
same,BPRS Depressive Mood score,Discharge,1
same,BPRS Disorientation improvement,Discharge,0
same,BPRS Emotional withdrawal improvement,Discharge,4
same,BPRS Emotional withdrawal score,Discharge,1
same,BPRS Excitement improvement,Discharge,1
same,BPRS Excitement score,Discharge,1
same,BPRS Grandiosity improvement,Discharge,0
same,BPRS Guilt feelings improvement,Discharge,5
same,BPRS Guilt feelings score,Discharge,1
same,BPRS Hallucinatory behaviour improvement,Discharge,0
same,BPRS Hostility improvement,Discharge,0
same,BPRS Mannerisms and Posturing improvement,Discharge,0
same,BPRS Motor retardation improvement,Discharge,0
same,BPRS Somatic Concern improvement,Discharge,5
same,BPRS Somatic Concern score,Discharge,1
same,BPRS Suspiciousness improvement,Discharge,0
same,BPRS Tension score,Discharge,1
same,BPRS Uncooperativeness improvement,Discharge,0
same,BPRS Unusual Thought Content improvement,Discharge,0
same,BPRS Anxiety score,baseline,7
same,BPRS Blunted affect score,baseline,1
same,BPRS Conceptual disorganization score,baseline,1
same,BPRS Depressive Mood score,baseline,6
same,BPRS Disorientation score,baseline,1
same,BPRS Emotional withdrawal score,baseline,5
same,BPRS Excitement score,baseline,2
same,BPRS Grandiosity score,baseline,1
same,BPRS Guilt feelings score,baseline,6
same,BPRS Hallucinatory behaviour score,baseline,1
same,BPRS Hostility score,baseline,1
same,BPRS Mannerisms and Posturing score,baseline,1
same,BPRS Motor retardation score,baseline,1
same,BPRS Somatic Concern score,baseline,6
same,BPRS Suspiciousness score,baseline,1
same,BPRS Tension score,baseline,6
same,BPRS Uncooperativeness score,baseline,1
same,BPRS Unusual Thought Content score,baseline,1
same,MADRS Apparent sadness score,baseline,5
same,MADRS Inability to Feel score,baseline,3
same,MADRS Inner Tension score,baseline,5
same,MADRS Lassitude score,baseline,3
same,MADRS Pessimistic Thoughts score,baseline,4
same,MADRS Reported sadness score,baseline,4
same,Total MADRS score,baseline,29
same,changes in vital parameters,shortly after administration,"temporary, clinically non-relevant increase in heart rate and blood pressure"
